{
  "source": "patent US10709764B2",
  "about": "“Use of compounds with thrombopoietic activity to promote bone growth and healing” (Osteofuse, Inc., priority 2010, dated 2020)",
  "key": {"[1]": {"system": "C57BL/6 bone marrow macrophages (BMMs)", "experiment": "Osteoclast formation from bone marrow macrophages cultured with M-CSF and RANKL, TRAP staining", "type": "cell-based, mouse", "method": "FIG. 2. Bar graph showing C57BL/6 bone marrow macrophages (BMMs) were cultured with M-CSF (30 ng/ml) and RANKL (50 ng/ml). While culturing C57BL/6 BMMs with M-CSF and RANKL (no TPO) results in the generation of mature TRAP^+ multinucleated osteoclasts (OCs) (>3 nuclei), culturing these cells with TPO (0.1-100 ng/ml) enhances the number OCs by >2-fold. *p<0.05\nFIG. 3A. Representative micrograph of cultures of BMMs stimulated with M-CSF (30 ng/ml) and RANKL (50 ng/ml).\nFIG. 3B. Representative micrograph of cultures of BMMs stimulated with M-CSF (30 ng/ml) and RANKL (50 ng/ml)."}, "[2]": {"system": "critical sized femoral defect", "experiment": "Mouse critical sized femoral defect with scaffold, x-ray follow-up", "type": "in vivo, C57BL/6 male mice", "from_the_text": "A critical sized femoral defect was created in the right femur of ten-week old C57BL/6 male mice. Our scaffold was inserted into the defect site. […] Referring now to FIG. 6, a critical sized femoral defect was created in the right femur of ten week old C57BL/6 male mice. A scaffold was inserted into the defect site."}, "[3]": {"system": "critical sized defect in the rat femur", "experiment": "Long Evans rat femur gap model, scaffold in 5 mm segmental defect", "type": "in vivo, Long Evans rats", "from_the_text": "A pilot study utilizing the Long Evans rat femur gap model which has been approved by the Laboratory Animal Care and Usage Committee (IACUC) at Indiana University was used to test a new method for repairing bone gaps. In brief, tube shape scaffolds with 4 mm external diameter, 2 mm internal diameter and 5 mm in height were manufactured from poly(propylene) fumarate/tricalcium phosphate. […] In the control group, the scaffolds were left untreated (n=3/group). Segmental defects of 5 mm were created in the right femurs of male Long Evans rats. The defect was filled with a 5 mm scaffold and secured with an intramedullary K-wire placed in retrograde fashion. Femurs were imaged by x-ray to assure proper placement and integrity of the scaffold. The rats were then imaged using x-ray at three week intervals to assess continued healing. At post-operative weeks 6 and 15, rats were euthanized and femurs analyzed by x-ray, microCT, and histology.\nAt 15 weeks, mineralized callus was seen bridging the two bone ends. In some areas adjacent to the scaffolds, isolated patches of cartilage with hypertrophic chondrocytes were observed, indicating the tissues were undergoing endochondral bone formation."}},
  "data": [
    {"substance": "thrombopoietin [TPO]", "values": [
      {"measurement": "mature multinucleated OCs developed (TRAP staining)", "setting": "[1]; TPO 100 ng/ml, M-CSF 30 ng/ml, RANKL 50 ng/ml", "result": "Significantly more OCs developed"},
      {"measurement": "enhancement of the number of mature TRAP+ multinucleated osteoclasts (OCs)", "setting": "[1]; TPO 0.1-100 ng/ml, M-CSF 30 ng/ml, RANKL 50 ng/ml, vs no TPO, p<0.05", "result": "> 2", "unit": "fold"},
      {"measurement": "increase of osteoclastogenesis", "setting": "[1]; osteoclast progenitors treated with TPO in vitro", "result": "up to 5 fold"},
      {"measurement": "bridging callus formation (x-ray)", "setting": "[2]; 2 weeks postoperatively, TPO 1 μg, BMP-2 4 μg in scaffold", "result": "remain unbridged"},
      {"measurement": "bridging callus formation (x-ray)", "setting": "[2]; 4-6 weeks postoperatively, TPO 1 μg in scaffold", "result": "have bridged"},
      {"measurement": "restoration of bone contour compared with BMP-2 scaffolds", "setting": "[2]; 4-6 weeks, TPO 1 μg vs BMP-2 4 μg", "result": "better restores the original contour of the bone"},
      {"measurement": "healing of critical sized defect (microCT)", "setting": "[3]; 10 μg in scaffold, post-operative week 15, n=3/group", "result": "robustly healed"},
      {"measurement": "cortex and trabeculae of the callus compared to callus induced by BMP-2", "setting": "[3]; 10 μg in scaffold, week 15, BMP-2 from an earlier study", "result": "thicker"},
      {"measurement": "remodeling compared with BMP-2", "setting": "[3]; 15 weeks post-operative, μCT (FIG. 5)", "result": "more extensive remodeling"}
    ]}
  ]
}
